Assay results published in patent publication US20040170580A1, “Filtering suntan product” (priority 2001, published 2004).

Tested on: normal human keratinocyte/melanocyte cocultures
Test: UV-induced melanogenesis by 14C-thiouracil incorporation related to amount of protein
Type: cell-based
Description: The protoprotective and propigmenting effect of the combination was tested on normal human keratinocyte/melanocyte cocultures according to the method described in patent FR 95/06491, by evaluating the UV-induced melanogenesis. The rate of melanin synthesis is evaluated through the incorporation of C^14-labeled thiouracil. It is related to the amount of protein.
Normal human keratinocytes (NHKs) and normal human melanocytes (NHMs) are cultured from foreskin. The two types of cell are amplified and stored frozen. Eight days before the test, each of the cell types is again placed in culture. The keratinocytes are cultured according to the method described by Rheinwald and Green (Cell (1975) 6, 331-334) on feeder cells (3T3 fibroblasts) in Green 7F growth medium (DMEM/F12, 3:1, 10% fetal calf serum (Gibco), 0.18 mM adenine, 10 ng/ml epidermal growth factor EGF, 0.4 μg/ml hydrocortisone, 5 μg/ml insulin, 10 μM isoproterenol, 5 μg/ml transferrin and 2 nM triiodothyronine). The melanocytes are amplified in M2 medium (Olsson, M. J. et al., Lancet (1992) 340, 981). The media are changed every two days.
3 days before the test, 250 000 normal human keratinocytes and 80 000 normal human melanocytes are mixed and seeded per well of 24-well plates (Costar type) and cultured for three days in the keratinocyte growth medium (Green 7F) without phenol red. During the following four days, the culture medium is replaced daily with UV medium (DMEM/F12, 3:1, without phenol red, 2% defined calf serum (HyClone), 10 ng/ml EGF, 10 ng/ml fibroblast growth factor type β (βFGF)).
The UV-induction of pigmentation is carried out by solar simulated radiation (SSR) using a 1 000 watt Oriel Xenon solar simulator comprising a 280-400 nm dichroic filter (Oriel, model 81035) and a Schott WG 320 filter having a wavelength cut-off of 311 nm (corresponding to a thickness of approximately 1.5 mm).
The cell cultures are irradiated once a day for 4 days in a phosphate buffer solution (PBS).
The propigmenting molecules are brought into contact with the cells in the PBS during the irradiation and added to the culture medium (UV medium) after irradiation.
The extract of Burnet is tested at 0.005%. It is prepared in a stock solution at 0.5% in a solvent (dimethyl sulfoxide, DMSO), which is added at a 1/1 000 dilution to the PBS and to the UV medium. The final concentration of the solvent in the culture medium is therefore 1/1 000.
The extract of Chrysanthemum sinensis obtained according to protocol Nos. 2+4 is tested at 1%.
The tyrosine, which serves as a positive control, is tested at 500 μM.
The Mexoryl SX® is tested at 8%.
After each exposure to UV radiation, the formulations containing the sunscreen are applied, in the proportion of 1.4 mg/cm^2, to a quartz slide on which there is a Transpore® strip, according to a method derived from that used to determine sun protection indices in vitro, described by Diffey and Robson (J Soc Cosmet Chemists (1989) 300, 230-235). The assembly is placed above the cocultures for the duration of the irradiation.
After irradiation, the cells are incubated in the UV medium containing 1 μCi/ml of C^14-labeled thiouracil.
Measurement of Melanogenesis:
The following controls are realized:
control culture: no product tested […]
24 hours after the final UV irradiation, the cells are rinsed in phosphate buffer. The proteins are precipitated with 5% trichloroacetic acid (TCA) and washed in order to remove the free radioactivity. […]

| Structure (SMILES) | % variation in melanin synthesis compared to the control; A = 14CthioU/amount protein (%/control) (SSR irradiation + solvent (DMSO 1/1000), 8% Mexoryl SX formulation on quartz slide above the cocultures, no propigmenting agent) | % variation in melanin synthesis compared to the control; A = 14CthioU/amount protein (%/control) (SSR irradiation once a day for 4 days, 8% Mexoryl SX formulation 1.4 mg/cm2 on quartz slide above the cocultures, no propigmenting agent, no solvent) | % variation in melanin synthesis compared to the control; A = 14CthioU/amount protein (%/control) (SSR irradiation once a day for 4 days, no screening agent, tyrosine 500 μM, extract of Burnet 0.005% (DMSO solvent), extract of Chrysanthemum sinensis 1%) | % variation in melanin synthesis compared to the control; A = 14CthioU/amount protein (%/control) (SSR irradiation screened by 8% Mexoryl SX formulation, in combination with propigmenting agent: tyrosine 500 μM, extract of Burnet 0.005% (DMSO solvent), extract of Chrysanthemum sinensis 1%) | % variation in melanin synthesis compared to the control; A = 14CthioU/amount protein (%/control) (no irradiation, propigmenting agent alone: tyrosine 500 μM, extract of Burnet 0.005% (DMSO solvent 1/1000), extract of Chrysanthemum sinensis 1%) |
| --- | --- | --- | --- | --- | --- |
| CC1(C)C2CCC1(CS(=O)(=O)O)C(=O)C2=Cc1ccc(C=C2C(=O)C3(CS(=O)(=O)O)CCC2C3(C)C)cc1 [Mexoryl SX ®] | 36% | 15% | – | – | – |
| N[C@@H](Cc1ccc(O)cc1)C(=O)O [tyrosine] | – | – | 382% | 74% | 40% |
